Experimental data from the NIST ThermoML archive (doi:10.1021/je200434a).

Conditions: 101.33 kPa, Liquid; for viscosity: Concentric cylinders viscometry; for mass density: Vibrating tube method

CCn1cc[n+](C)c1.COS(=O)(=O)[O-] [1-ethyl-3-methylimidazolium methylsulfate]
Conditions | mass density [kg/m3] | viscosity [mPa·s]
283.15 K | – | 169.5
288.15 K | – | 128.6
293.15 K | 1289.48 | 99.7
294.15 K | 1288.8 | –
295.15 K | 1288.1 | –
296.15 K | 1287.41 | –
297.15 K | 1286.71 | –
298.15 K | 1286.02 | 78.8
299.15 K | 1285.33 | –
300.15 K | 1284.64 | –
301.15 K | 1283.95 | –
302.15 K | 1283.26 | –
303.15 K | 1282.57 | 63.4
304.15 K | 1281.89 | –
305.15 K | 1281.2 | –
306.15 K | 1280.52 | –
307.15 K | 1279.84 | –
308.15 K | 1279.15 | 51.8
309.15 K | 1278.48 | –
310.15 K | 1277.8 | –
311.15 K | 1277.12 | –
312.15 K | 1276.44 | –
313.15 K | 1275.76 | 42.9
314.15 K | 1275.09 | –
315.15 K | 1274.41 | –
316.15 K | 1273.74 | –
317.15 K | 1273.07 | –
318.15 K | 1272.4 | 35.9
319.15 K | 1271.72 | –
320.15 K | 1271.05 | –
321.15 K | 1270.38 | –
322.15 K | 1269.71 | –
323.15 K | 1269.04 | 30.5
324.15 K | 1268.37 | –
325.15 K | 1267.71 | –
326.15 K | 1267.04 | –
327.15 K | 1266.38 | –
328.15 K | 1265.71 | 26.1
329.15 K | 1265.05 | –
330.15 K | 1264.39 | –
331.15 K | 1263.72 | –
332.15 K | 1263.06 | –
333.15 K | 1262.4 | 22.6
334.15 K | 1261.74 | –
335.15 K | 1261.08 | –
336.15 K | 1260.42 | –
337.15 K | 1259.76 | –
338.15 K | 1259.1 | 19.7
339.15 K | 1258.44 | –
340.15 K | 1257.78 | –
341.15 K | 1257.13 | –
342.15 K | 1256.47 | –
343.15 K | 1255.81 | 17.3
344.15 K | 1255.15 | –
345.15 K | 1254.5 | –
346.15 K | 1253.84 | –
347.15 K | 1253.19 | –
348.15 K | 1252.54 | 15.3
349.15 K | 1251.88 | –
350.15 K | 1251.23 | –
351.15 K | 1250.58 | –
352.15 K | 1249.93 | –
353.15 K | 1249.28 | 13.6
354.15 K | 1248.63 | –
355.15 K | 1247.98 | –
356.15 K | 1247.33 | –
357.15 K | 1246.68 | –
358.15 K | 1246.03 | 12.2
359.15 K | 1245.38 | –
360.15 K | 1244.74 | –
361.15 K | 1244.09 | –
362.15 K | 1243.44 | –
363.15 K | 1242.8 | 11
368.15 K | – | 9.9
373.15 K | – | 9

CCn1cc[n+](C)c1.O=S(=O)([O-])O [1-ethyl-3-methylimidazolium hydrogen sulfate]
Conditions | mass density [kg/m3] | viscosity [mPa·s]
283.15 K | – | 5756.7
288.15 K | – | 3635
293.15 K | 1368.86 | 2389.9
294.15 K | 1368.25 | –
295.15 K | 1367.63 | –
296.15 K | 1367 | –
297.15 K | 1366.38 | –
298.15 K | 1365.77 | 1628.4
299.15 K | 1365.14 | –
300.15 K | 1364.53 | –
301.15 K | 1363.91 | –
302.15 K | 1363.29 | –
303.15 K | 1362.67 | 1144.8
304.15 K | 1362.05 | –
305.15 K | 1361.44 | –
306.15 K | 1360.82 | –
307.15 K | 1360.21 | –
308.15 K | 1359.59 | 827.1
309.15 K | 1358.98 | –
310.15 K | 1358.76 | –
311.15 K | 1358.14 | –
312.15 K | 1357.52 | –
313.15 K | 1356.9 | 612.2
314.15 K | 1356.28 | –
315.15 K | 1355.67 | –
316.15 K | 1355.05 | –
317.15 K | 1354.43 | –
318.15 K | 1353.81 | 463
319.15 K | 1353.19 | –
320.15 K | 1352.57 | –
321.15 K | 1351.96 | –
322.15 K | 1351.34 | –
323.15 K | 1350.72 | 356.8
324.15 K | 1350.11 | –
325.15 K | 1349.49 | –
326.15 K | 1348.88 | –
327.15 K | 1348.27 | –
328.15 K | 1347.65 | 279.7
329.15 K | 1347.04 | –
330.15 K | 1346.43 | –
331.15 K | 1345.82 | –
332.15 K | 1345.2 | –
333.15 K | 1344.6 | 222.6
334.15 K | 1343.99 | –
335.15 K | 1343.38 | –
336.15 K | 1342.77 | –
337.15 K | 1342.16 | –
338.15 K | 1341.56 | 179.6
339.15 K | 1340.95 | –
340.15 K | 1340.35 | –
341.15 K | 1339.75 | –
342.15 K | 1339.14 | –
343.15 K | 1338.54 | 146.7
344.15 K | 1337.94 | –
345.15 K | 1337.34 | –
346.15 K | 1336.74 | –
347.15 K | 1336.14 | –
348.15 K | 1335.54 | 121.2
349.15 K | 1334.94 | –
350.15 K | 1334.35 | –
351.15 K | 1333.75 | –
352.15 K | 1333.16 | –
353.15 K | 1332.57 | 101.2
354.15 K | 1331.97 | –
355.15 K | 1331.38 | –
356.15 K | 1330.79 | –
357.15 K | 1330.2 | –
358.15 K | 1329.61 | 85.2
359.15 K | 1329.02 | –
360.15 K | 1328.44 | –
361.15 K | 1327.85 | –
362.15 K | 1327.26 | –
363.15 K | 1326.68 | 72.4
368.15 K | – | 61.9
373.15 K | – | 53.4

CCCCOS(=O)(=O)[O-].CC[n+]1ccn(C)c1 [3-ethyl-1-methylimidazolium butyl sulfate]
Conditions | mass density [kg/m3] | viscosity [mPa·s]
283.15 K | – | 468.4
288.15 K | – | 332.5
293.15 K | 1179.68 | 242.3
294.15 K | 1178.99 | –
295.15 K | 1178.3 | –
296.15 K | 1177.62 | –
297.15 K | 1176.93 | –
298.15 K | 1176.24 | 180.8
299.15 K | 1175.55 | –
300.15 K | 1174.87 | –
301.15 K | 1174.19 | –
302.15 K | 1173.5 | –
303.15 K | 1172.82 | 137.9
304.15 K | 1172.14 | –
305.15 K | 1171.46 | –
306.15 K | 1170.78 | –
307.15 K | 1170.11 | –
308.15 K | 1169.43 | 107.2
309.15 K | 1168.75 | –
310.15 K | 1168.08 | –
311.15 K | 1167.41 | –
312.15 K | 1166.73 | –
313.15 K | 1166.06 | 84.8
314.15 K | 1165.39 | –
315.15 K | 1164.73 | –
316.15 K | 1164.06 | –
317.15 K | 1163.39 | –
318.15 K | 1162.73 | 68.1
319.15 K | 1162.06 | –
320.15 K | 1161.4 | –
321.15 K | 1160.74 | –
322.15 K | 1160.07 | –
323.15 K | 1159.41 | 55.6
324.15 K | 1158.76 | –
325.15 K | 1158.1 | –
326.15 K | 1157.43 | –
327.15 K | 1156.78 | –
328.15 K | 1156.12 | 45.9
329.15 K | 1155.47 | –
330.15 K | 1154.81 | –
331.15 K | 1154.16 | –
332.15 K | 1153.51 | –
333.15 K | 1152.85 | 38.4
334.15 K | 1152.2 | –
335.15 K | 1151.55 | –
336.15 K | 1150.9 | –
337.15 K | 1150.25 | –
338.15 K | 1149.6 | 32.4
339.15 K | 1148.95 | –
340.15 K | 1148.3 | –
341.15 K | 1147.65 | –
342.15 K | 1147.01 | –
343.15 K | 1146.37 | 27.7
344.15 K | 1145.72 | –
345.15 K | 1145.07 | –
346.15 K | 1144.43 | –
347.15 K | 1143.78 | –
348.15 K | 1143.14 | 23.8
349.15 K | 1142.5 | –
350.15 K | 1141.85 | –
351.15 K | 1141.21 | –
352.15 K | 1140.57 | –
353.15 K | 1139.93 | 20.7
354.15 K | 1139.29 | –
355.15 K | 1138.65 | –
356.15 K | 1138.01 | –
357.15 K | 1137.37 | –
358.15 K | 1136.73 | 18.1
359.15 K | 1136.09 | –
360.15 K | 1135.45 | –
361.15 K | 1134.82 | –
362.15 K | 1134.18 | –
363.15 K | 1133.54 | 16
368.15 K | – | 14.2
373.15 K | – | 12.6
